Laboratory results taken from patent US20050239809A1, “Methods for treating and preventing hypertension and hypertension-related disorders” (priority 2004, published 2005).

Test system: endothelium-denuded aorta from DOCA-salt and sham rats
Assay: Spontaneous tone of endothelium-denuded thoracic aorta in isolated tissue baths (isometric force)
Design: species or system rat
Protocol: Endothelial cell-denuded thoracic aorta, removed from pentobarbital (60 mg kg^-1, i.p.) anesthetized rats, were pair-mounted (Sham/DOCA) in isolated tissue baths for measurement of isometric force. (Florian and Watts (1999) Am. J. Physiol., 276: […]-[…]) Tissues were challenged with a maximal concentration of a adrenergic agonist, phenylephrine (PE) (10^-5 mol/L). IC87114 (ICOS Corporation, Bothell, Wash.) concentration response curves were generated by adding increasing concentrations of IC87114 (1×10^-9-3×10^-4 mol/L) with measurements of spontaneous tone taken every 30 minutes. Aortic strips from DOCA-salt rats were also exposed to 20 μmol/L IC87114 or vehicle for 1 hour and measurements of spontaneous tone were recorded. […] Tissues were under passive tension for optimal force production. […] The effect of IC87114 was reversible in all experiments, as spontaneous tone was restored upon washing out of IC87114. In further experiments using an IC87114 concentration equivalent to that used in previous experiments with LY294002 (20 μmol/L) (Example 1), IC87114 (20 μmol/L) or vehicle (0.1% DMSO) was incubated with aortic strips from DOCA-salt rats for 1 hour in isolated tissue baths.

SMILES: Cc1ccccc1-n1c(Cn2cnc3c(N)ncnc32)nc2cccc(C)c2c1=O [IC87114, 2-(6-aminopurin-9-ylmethyl)-5-methyl-3-o-tolyl-3H-quinazolin-4-one]
- effect on spontaneous tone in aorta from DOCA-salt rats, single concentration (20 μmol/L, 1 hour incubation, compared to vehicle (0.1% DMSO), P<0.05): significantly inhibits spontaneous tone development
- effect of increasing concentrations on spontaneous tone in aorta from DOCA-salt rats (10^−9 to 3×10^−4 mol/L, absence of agonist, endothelium-denuded aortic strips): reduced spontaneous tone in a concentration-dependent manner
- reversibility of effect on spontaneous tone upon washing out (aorta from DOCA-salt rats): reversible
